In PubChem BioAssay AID1259407 (Chemical Carcinogenesis Research Information System (CCRIS), 2018):
Active and inactive are the calls of the source. The rule behind the calls is not given here.

Test system: CCRIS mutagenicity, Ames/micronucleus/aberration tests
Test: CCRIS mutagenicity studies
Conditions: Test System: AMES SALMONELLA TYPHIMURIUM, Method: PREINCUBATION
[1] = Strain/Indicator: TA97, Metabolic Activation: NONE
[2] = Strain/Indicator: TA98, Metabolic Activation: NONE
[3] = Strain/Indicator: TA100, Metabolic Activation: NONE
[4] = Strain/Indicator: TA1535, Metabolic Activation: NONE

## O=C1C=C(S(=O)(=O)O)c2ccccc2C1=O
[1]
  mutagenic call: inactive; negative
Strain/Indicator: TA97, Metabolic Activation: RAT, LIVER, S-9, PHENOBARBITAL AND 5,6-BENZOFLAVONE
  mutagenic call: inactive; negative
[2]
  mutagenic call: inactive; negative
Strain/Indicator: TA98, Metabolic Activation: RAT, LIVER, S-9, PHENOBARBITAL AND 5,6-BENZOFLAVONE
  mutagenic call: inactive; negative
[3]
  mutagenic call: active; positive
Strain/Indicator: TA100, Metabolic Activation: RAT, LIVER, S-9, PHENOBARBITAL AND 5,6-BENZOFLAVONE
  mutagenic call: inactive; negative
Strain/Indicator: TA102, Metabolic Activation: NONE
  mutagenic call: inactive; negative
Strain/Indicator: TA102, Metabolic Activation: RAT, LIVER, S-9, PHENOBARBITAL AND 5,6-BENZOFLAVONE
  mutagenic call: inactive; negative
Strain/Indicator: TA104, Metabolic Activation: NONE
  mutagenic call: active; positive
Strain/Indicator: TA104, Metabolic Activation: RAT, LIVER, S-9, PHENOBARBITAL AND 5,6-BENZOFLAVONE
  mutagenic call: inactive; negative
[4]
  mutagenic call: inactive; negative
Strain/Indicator: TA1535, Metabolic Activation: RAT, LIVER, S-9, PHENOBARBITAL AND 5,6-BENZOFLAVONE
  mutagenic call: inactive; negative
Strain/Indicator: TA1537, Metabolic Activation: NONE
  mutagenic call: inactive; negative
Strain/Indicator: TA1537, Metabolic Activation: RAT, LIVER, S-9, PHENOBARBITAL AND 5,6-BENZOFLAVONE
  mutagenic call: inactive; negative
Strain/Indicator: TA1538, Metabolic Activation: NONE
  mutagenic call: inactive; negative
Strain/Indicator: TA1538, Metabolic Activation: RAT, LIVER, S-9, PHENOBARBITAL AND 5,6-BENZOFLAVONE
  mutagenic call: inactive; negative
Strain/Indicator: TA2637, Metabolic Activation: NONE
  mutagenic call: active; positive
Strain/Indicator: TA2637, Metabolic Activation: RAT, LIVER, S-9, PHENOBARBITAL AND 5,6-BENZOFLAVONE
  mutagenic call: inactive; negative

## COC(=O)C1=C(C)NC(C)=C(C(=O)OC)C1c1ccccc1[N+](=O)[O-]
Strain/Indicator: TA97, Metabolic Activation: HAMSTER, LIVER, S-9, AROCLOR 1254 (10 OR 30%)
  mutagenic call: inactive; negative
[1]
  mutagenic call: inactive; negative
Strain/Indicator: TA97, Metabolic Activation: RAT, LIVER, S-9, AROCLOR 1254 (10 OR 30%)
  mutagenic call: inactive; negative
Strain/Indicator: TA98, Metabolic Activation: HAMSTER, LIVER, S-9, AROCLOR 1254 (10 OR 30%)
  mutagenic call: inactive; negative
[2]
  mutagenic call: inactive; negative
Strain/Indicator: TA98, Metabolic Activation: RAT, LIVER, S-9, AROCLOR 1254 (10 OR 30%)
  mutagenic call: inactive; negative
Strain/Indicator: TA100, Metabolic Activation: HAMSTER, LIVER, S-9, AROCLOR 1254 (10 OR 30%)
  mutagenic call: inactive; negative
[3]
  mutagenic call: inactive; negative
Strain/Indicator: TA100, Metabolic Activation: RAT, LIVER, S-9, AROCLOR 1254 (10 OR 30%)
  mutagenic call: inactive; negative
Strain/Indicator: TA1535, Metabolic Activation: HAMSTER, LIVER, S-9, AROCLOR 1254 (10 OR 30%)
  mutagenic call: inactive; negative
[4]
  mutagenic call: inactive; negative
Strain/Indicator: TA1535, Metabolic Activation: RAT, LIVER, S-9, AROCLOR 1254 (10 OR 30%)
  mutagenic call: inactive; negative
